From patent US10208047B2, “Tertiary alcohol imidazopyrazine BTK inhibitors” (Merck Sharp & Dohme Corp., priority 2014, dated 2019) come the findings set out here.

Sequence of BTK enzyme (recombinant full-length BTK, hBTK) (Q06187 whole entry): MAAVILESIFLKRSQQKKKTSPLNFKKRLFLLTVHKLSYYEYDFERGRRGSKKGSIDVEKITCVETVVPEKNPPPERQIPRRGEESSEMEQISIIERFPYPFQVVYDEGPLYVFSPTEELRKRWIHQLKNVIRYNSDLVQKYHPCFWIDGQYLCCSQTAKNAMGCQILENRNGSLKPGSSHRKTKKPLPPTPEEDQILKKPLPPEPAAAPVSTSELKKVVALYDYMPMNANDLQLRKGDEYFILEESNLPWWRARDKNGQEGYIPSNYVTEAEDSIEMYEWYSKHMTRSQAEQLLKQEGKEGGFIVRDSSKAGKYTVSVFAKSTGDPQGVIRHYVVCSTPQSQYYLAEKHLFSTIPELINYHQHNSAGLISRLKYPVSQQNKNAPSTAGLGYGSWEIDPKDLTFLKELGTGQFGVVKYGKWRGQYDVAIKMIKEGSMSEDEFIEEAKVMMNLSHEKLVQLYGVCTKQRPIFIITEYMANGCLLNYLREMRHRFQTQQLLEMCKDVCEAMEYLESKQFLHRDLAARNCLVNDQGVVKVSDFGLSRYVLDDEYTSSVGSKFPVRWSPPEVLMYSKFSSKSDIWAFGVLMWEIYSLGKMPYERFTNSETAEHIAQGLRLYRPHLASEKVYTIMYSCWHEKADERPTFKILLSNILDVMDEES

The target of this assay is BTK enzyme (recombinant full-length BTK, hBTK) (Homo sapiens (Human), UniProt Q06187). In words: Btk enzyme activity assay, LANCE TR-FRET. The class given is biochemical. The note with it: 50 pM hBTK, 2 μM biotin-A5-peptide, 25 μM ATP, 60 minute compound & enzyme incubation, compound range 1 μM to 0.017 nM, read-out: BTK binding IC50. How it is done:
Btk Enzyme Activity Assay Methods
BTK enzymatic activity was determined with the LANCE (Lanthanide Chelate Excite) TR-FRET (Time-resolved fluorescence resonance energy transfer) assay. In this assay, the potency (IC50) of each compound was determined from an eleven point (1:3 serial dilution; final compound concentration range in assay from 1 μM to 0.017 nM) titration curve using the following outlined procedure. To each well of a black non-binding surface Corning 384-well microplate (Corning Catalog #3820), 5 nL of compound (2000 fold dilution in final assay volume of 10 μL) was dispensed, followed by the addition of 7.5 μL of 1× kinase buffer (50 mM Hepes 7.5, 10 mM MgCl2, 0.01% Brij-35, 1 mM EGTA, 0.05% BSA & 1 mM DTT) containing 5.09 pg/μL (66.67 pM) of BTK enzyme (recombinant protein from baculovirus-transfected Sf9 cells: full-length BTK, 6HIS-tag cleaved). Following a 60 minute compound & enzyme incubation, each reaction was initiated by the addition of 2.5 μL 1× kinase buffer containing 8 μM biotinylated “A5” peptide (Biotin-EQEDEPEGDYFEWLE-NH2) (SEQ.ID.NO.: 1), and 100 μM ATP. The final reaction in each well of 10 μL consists of 50 pM hBTK, 2 μM biotin-A5-peptide, and 25 μM ATP. Phosphorylation reactions were allowed to proceed for 120 minutes. Reactions were immediately quenched by the addition of 20 uL of 1× quench buffer (15 mM EDTA, 25 mM Hepes 7.3, and 0.1% Triton X-100) containing detection reagents (0.626 nM of LANCE-Eu-W1024-anti-phosphoTyrosine antibody, PerkinElmer and 86.8 nM of Streptavidin-conjugated Dylight 650, Dyomics/ThermoFisher Scientific). After 60 minutes incubation with detection reagents, reaction plates were read on a PerkinElmer EnVision plate reader using standard TR-FRET protocol. Briefly, excitation of donor molecules (Eu-chelate:anti-phospho-antibody) with a laser light source at 337 nm produces energy that can be transferred to Dylight-650 acceptor molecules if this donor:acceptor pair is within close proximity. Fluorescence intensity at both 665 nm (acceptor) and 615 nm (donor) are measured and a TR-FRET ratio calculated for each well (acceptor intensity/donor intensity). IC50 values were determined by 4 parameter robust fit of TR-FRET ratio values vs. (Log10) compound concentrations.
A general note: In TR-FRET formats the signal depends on donor and acceptor labels being close together.
For the molecule `CC(C)[C@]1(C(=O)O)CC[C@H](c2nc(-c3ccc([C@](C)(O)c4cccc(C(F)(F)F)c4)cc3)c3c(N)nccn23)C1` [Example 4, (1S,3S)-3-[8-amino-1-(4-{(1S)-1-hydroxy-1-[3-(trifluoromethyl)phenyl]ethyl}phenyl)imidazo[1,5-a]pyrazin-3-yl]-1-(1-methylethyl)cyclopentanecarboxylic acid], the half-maximal inhibitory concentration (IC50) (usually the point on the concentration scale where inhibition reaches its midpoint) is 1000 nM.
For the molecule `CC1(C)[C@@H](c2nc(-c3ccc([C@@](C)(O)c4cccc(C(F)(F)F)c4)cc3)c3c(N)nccn23)CC[C@@]1(C)C(=O)O` [Example 13, (1R,3S)-3-[8-amino-1-(4-{(1R)-1-hydroxy-1-[3-(trifluoromethyl)phenyl]ethyl}phenyl)imidazo[1,5-a]pyrazin-3-yl]-1,2,2-trimethylcyclopentanecarboxylic acid], the IC50 came to 86 nM.
For `C[C@@](O)(c1ccc(-c2nc([C@H]3C[C@H]4CC[C@@H](C3)[C@H]4C(=O)O)n3ccnc(N)c23)cc1)c1cccc(C(F)(F)F)c1` [Example 25, (3-endo,8-syn)-3-[8-amino-1-(4-{(1R)-1-hydroxy-1-[3-(trifluoromethyl)phenyl]ethyl}phenyl)imidazo[1,5-a]pyrazin-3-yl]bicyclo[3.2.1]octane-8-carboxylic acid], the IC50 worked out at 39.9 nM.
As to `CC1(C)[C@H](c2nc(-c3ccc([C@@](C)(O)c4cccc(C(F)F)c4)cc3)c3c(N)ncc(F)n23)CC[C@]1(C)C(=O)O` [Example 34, (1S,3R)-3-[8-amino-1-(4-{(1R)-1-[3-(difluoromethyl)phenyl]-1-hydroxyethyl}phenyl)-5-fluoroimidazo[1,5-a]pyrazin-3-yl]-1,2,2-trimethylcyclopentanecarboxylic acid], the IC50 came to 2.4 nM.
`C[C@@](O)(c1ccc(-c2nc(C34CCC(C(=O)O)(CC3(F)F)C(F)(F)C4)n3ccnc(N)c23)cc1)c1cccc(C(F)(F)F)c1` (stereo partly drawn) [Example 12, 4-[8-amino-1-(4-{(1R)-1-hydroxy-1-[3-(trifluoromethyl)phenyl]ethyl}phenyl)imidazo[1,5-a]pyrazin-3-yl]-2,2,5,5-tetrafluorobicyclo[2.2.2]octane-1-carboxylic acid]: the IC50 amounted to 17.3 nM.
With `C[C@@](O)(c1ccc(-c2nc(C34CCC(C(=O)O)(CC3)C3CC34)n3ccnc(N)c23)cc1)c1cccc(C(F)(F)F)c1` (stereo partly drawn) [Example 22, 5-[8-amino-1-(4-{(1R)-1-hydroxy-1-[3-(trifluoromethyl)phenyl]ethyl}phenyl)imidazo[1,5-a]pyrazin-3-yl]tricyclo[3.2.2.0~2,4~]nonane-1-carboxylic acid] the figure was 6.2 nM; with `C[C@@](O)(c1ccc(-c2nc(C34CCC(C(=O)O)(CC3)CC4)n3ccnc(N)c23)cc1)c1cccc(C(F)(F)F)c1` [Example 3, 4-[8-amino-1-(4-{(1R)-1-hydroxy-1-[3-(trifluoromethyl)phenyl]ethyl}phenyl)imidazo[1,5-a]pyrazin-3-yl]bicyclo[2.2.2]octane-1-carboxylic acid], 775 nM; with `C[C@](O)(c1ccc(-c2nc(C34CCC(C(=O)O)(CC3)CC4)n3ccnc(N)c23)cc1)c1cccc(C(F)(F)F)c1` [Example 2, 4-[8-amino-1-(4-{(1S)-1-hydroxy-1-[3-(trifluoromethyl)phenyl]ethyl}phenyl)imidazo[1,5-a]pyrazin-3-yl]bicyclo[2.2.2]octane-1-carboxylic acid], 5.8 nM.
Consider `CC1(C)[C@H](c2nc(-c3ccc([C@@](C)(O)c4cccc(C(F)(F)F)c4)cc3)c3c(N)nccn23)CC[C@]1(C)C(=O)O` [Example 11, (1S,3R)-3-[8-amino-1-(4-{(1R)-1-hydroxy-1-[3-(trifluoromethyl)phenyl]ethyl}phenyl)imidazo[1,5-a]pyrazin-3-yl]-1,2,2-trimethylcyclopentanecarboxylic acid], for which the IC50 was determined as 5 nM.
For the molecule `C[C@@](O)(c1ccc(-c2nc(C3(C(=O)O)CCOCC3)n3ccnc(N)c23)cc1)c1cccc(C(F)(F)F)c1` [Example 10, 4-[8-amino-1-(4-{(1R)-1-hydroxy-1-[3-(trifluoromethyl)phenyl]ethyl}phenyl)imidazo[1,5-a]pyrazin-3-yl]tetrahydro-2H-pyran-4-carboxylic acid], the IC50 was 294 nM.
Regarding `C[C@@](O)(c1ccc(-c2nc([C@@H]3C[C@H]4CC[C@@H](C3)[C@H]4C(=O)O)n3ccnc(N)c23)cc1)c1cccc(C(F)(F)F)c1` [Example 26, (3-exo,8-syn)-3-[8-amino-1-(4-{(1R)-1-hydroxy-1-[3-(trifluoromethyl)phenyl]ethyl}phenyl)imidazo[1,5-a]pyrazin-3-yl]bicyclo[3.2.1]octane-8-carboxylic acid], the IC50 was found to be 33.5 nM.
With `C[C@]1(C(=O)O)CC[C@@](C)(c2nc(-c3ccc([C@@](C)(O)c4cccc(C(F)(F)F)c4)cc3)c3c(N)nccn23)C1` [Example 18, (1S,3R)-3-[8-amino-1-(4-{(1R)-1-hydroxy-1-[3-(trifluoromethyl)phenyl]ethyl}phenyl)imidazo[1,5-a]pyrazin-3-yl]-1,3-dimethylcyclopentanecarboxylic acid] the figure was 178 nM; with `C[C@@](O)(c1ccc(-c2nc(C34CCCC(C(=O)O)(CC3)CC4)n3ccnc(N)c23)cc1)c1cccc(C(F)(F)F)c1` [Example 9, 5-[8-amino-1-(4-{(1R)-1-hydroxy-1-[3-(trifluoromethyl)phenyl]ethyl}phenyl)imidazo[1,5-a]pyrazin-3-yl]bicyclo[3.2.2]nonane-1-carboxylic acid], 7 nM.
With `CCOc1cc([C@@](C)(O)c2cccc(C(F)(F)F)c2)ccc1-c1nc([C@@H]2CC[C@](C)(C(=O)O)C2(C)C)n2ccnc(N)c12` [Example 28, (1S,3R)-3-[8-amino-1-(2-ethoxy-4-{(1S)-1-hydroxy-1-[3-(trifluoromethyl)phenyl]ethyl}phenyl)imidazo[1,5-a]pyrazin-3-yl]-1,2,2-trimethylcyclopentanecarboxylic acid], the IC50 stood at 1.2 nM.
With `C[C@@](O)(c1ccc(-c2nc([C@@H]3C[C@@H]4[C@H](C3)[C@H]4C(=O)O)n3ccnc(N)c23)cc1)c1cccc(C(F)(F)F)c1` [Example 36, (1R,3R,5S,6r)-3-[8-amino-1-(4-{(1R)-1-hydroxy-1-[3-(trifluoromethyl)phenyl]ethyl}phenyl)imidazo[1,5-a]pyrazin-3-yl]bicyclo[3.1.0]hexane-6-carboxylic acid] the figure was 1.1 nM; with `C[C@@](O)(c1ccc(-c2nc(C34CCC(C(=O)O)(CC3=O)C(=O)C4)n3ccnc(N)c23)cc1)c1cccc(C(F)(F)F)c1` (stereo partly drawn) [Example 6, 4-[8-amino-1-(4-{(1R)-1-hydroxy-1-[3-(trifluoromethyl)phenyl]ethyl}phenyl)imidazo[1,5-a]pyrazin-3-yl]-2,5-dioxobicyclo[2.2.2]octane-1-carboxylic acid], 52 nM; with `CC(C)[C@@]1(C(=O)O)CCC[C@H](c2nc(-c3ccc([C@](C)(O)c4cccc(C(F)(F)F)c4)cc3)c3c(N)nccn23)C1` [Example 15, (1R,3S)-3-[8-amino-1-(4-{(1S)-1-hydroxy-1-[3-(trifluoromethyl)phenyl]ethyl}phenyl)imidazo[1,5-a]pyrazin-3-yl]-1-(1-methylethyl)cyclohexanecarboxylic acid], 104 nM.
Regarding `CC(C)[C@@]1(C(=O)O)CC[C@@H](c2nc(-c3ccc([C@@](C)(O)c4cccc(C(F)F)c4)cc3)c3c(N)ncc(Cl)n23)C1` [Example 32, (1R,3R)-3-[8-amino-5-chloro-1-(4-{(1R)-1-[3-(difluoromethyl)phenyl]-1-hydroxyethyl}phenyl)imidazo[1,5-a]pyrazin-3-yl]-1-(1-methylethyl)cyclopentanecarboxylic acid], the IC50 turned out to be 41.8 nM.
In the case of `CC(C)[C@]1(C(=O)O)CC[C@H](c2nc(-c3ccc([C@@](C)(O)c4cccc(C(F)(F)F)c4)cc3)c3c(N)nccn23)C1` [Example 5, (1S,3S)-3-[8-amino-1-(4-{(1R)-1-hydroxy-1-[3-(trifluoromethyl)phenyl]ethyl}phenyl)imidazo[1,5-a]pyrazin-3-yl]-1-(1-methylethyl)cyclopentanecarboxylic acid], the IC50 is 19 nM.
On to `C[C@@](O)(c1ccc(-c2nc([C@@H]3C[C@@H]4[C@H](C3)[C@@H]4C(=O)O)n3ccnc(N)c23)cc1)c1cccc(C(F)(F)F)c1` [Example 35, (1R,3r,5S,6s)-3-[8-amino-1-(4-{(1R)-1-hydroxy-1-[3-(trifluoromethyl)phenyl]ethyl}phenyl)imidazo[1,5-a]pyrazin-3-yl]bicyclo[3.1.0]hexane-6-carboxylic acid], for which the IC50 was determined as 15.7 nM.
